Laboratory results: ChEMBL document CHEMBL3576794, “Decaprenylphosphoryl-β-d-ribose 2'-Epimerase 1 (DprE1): A Novel Therapeutic Target for the Treatment of Tuberculosis” (2015)
≈ marks a conversion by molar mass, not a printed value.

Each molecule was assayed on Mycobacterium tuberculosis (assay: Antibacterial activity against Mycobacterium tuberculosis H37Rv ATCC 27294 after 5 days by microdilution method). Conditions: H37Rv ATCC 27294, 120 h.
Assay type: functional

Compound | MIC80
COc1ncnc(Cn2cc(C(=O)NCCF)c3ncccc32)c1C | 1.56 µM (≈ 0.536 µg/mL)
COc1ncnc(Cn2cc(C(=O)NCCF)c3ncc(Br)cc32)c1C | 0.781 µM (≈ 0.33 µg/mL)
COc1cnc2c(C(=O)NCC(F)F)cn(Cc3ncnc(OC)c3C)c2c1 | < 0.39 µM
CC(c1c(F)cccc1F)n1cc(C(=O)NCCF)c2ncccc21 (stereo unspecified) | 12.5 µM (≈ 4.34 µg/mL)
COc1ncnc(Cn2cc(C(=O)NC[C@@H](C)O)c3ncc(C)cc32)c1C | 6.52 µM (≈ 2.41 µg/mL)
COc1ncnc(Cn2cc(C(=O)NCCO)c3ncc(C)cc32)c1C [TBA-7371] | 1.56 µM (≈ 0.554 µg/mL)
